Entries after “also recorded” stand apart in the source; their conditions may differ. Where two headings read alike, the source gives them in different places.
Legend:
NaV1.7 = format: cell-based, rat
other NaV1.x channels = experiment: Whole-cell patch clamp, other NaV1.x channels; format: cell-based
NaV1.7 channels = experiment: Sodium currents of sensory neurons incubated with compound for indicated times (direct block test); format: cell-based; design: dose or concentration left out as unconfirmed; conditions: primary rat sensory neurons
Protocol: Primary rat sensory neurons were incubated for the indicated times with DMSO 0.1% or […] AZ194. Left: Bar graphs represent normalized peak sodium current density±s.e.m. from at least 14 cells per condition from 3 separate rats.*p<0.05, Kruskal-Wallis test. Middle: current voltage relationship of sodium currents from rat sensory neurons incubated for the indicated times with DMSO 0.1% or […] AZ194. Right: biophysical properties of inactivation were not altered by AZ194 at any of the time points versus control.
Primary rat sensory neurons were incubated for the indicated times with DMSO 0.1% or 5 mM AZ194.

CaV2.2 = biological target: T1, CaV2.2 (Rattus norvegicus, UniProt Q02294); experiment: Peak CaV2.2 currents in DRGs; format: cell-based; conditions: 20 μM
T1 construct: endogenous in cells; host or cells: DRG neurons

Ubc9 = Ubc9 (Homo sapiens, UniProt P63279); experiment: 1D 1H STD NMR binding to Ubc9
TTX-S NaV1.7 currents = format: cell-based, human
hERG = hERG (Homo sapiens, UniProt Q12809); conditions: 20 μM, hEK293 cells; listed as ReN 194
Penk mRNA = experiment: Penk (proenkephalin) mRNA expression in cultured DRG neurons; format: cell-based; conditions: exposure 6 hr, cultured rat DRG neurons
CRMP2 = CRMP2 (Mus musculus, UniProt O08553); experiment: 1D 1H STD NMR binding to CRMP2
Protocol: 1D ^1H STD NMR showing on-resonance spectrum for CRMP2 with probe AZ194. Asterisks correspond to protons. […] NMR was performed on an AVANCE III 400 Mhz specrometer equipped with a Bruker PABBO 400S1 probe and SampleJet carousel that can hold up to 96 NMR tubes. The on-resonance excitation was set at 0.81 ppm (to irradiate protein methyl groups) and off-resonance set to 30 ppm. A 15 ms spin-lock was used to suppress the protein signal, followed by the double PFG spin echo to remove residual water signal. Spectra processing and analysis were performed with Topspin3.1 and MestReNova 7.1.

[1] = test system: spared nerve injury (SNI) rats; experiment: Spared nerve injury (SNI) model of neuropathic pain; format: in vivo, rat
Protocol: FIG. 4: AZ194 reduces spared nerve injury (SNI) induced nociceptive behaviors. Rats received spared nerve injury (SNI) on the left hind paw. […] Right panel: Area under the curve (AUC), using the trapezoid method, for PWT (summary for data shown in the time course on the left) are shown. *p<0.05, one-way analysis of variance with Dunnett's post hoc analysis. Error bars represent mean±s.e.m.
AZ194 was evaluated for efficacy in the spared nerve injury (SNI) model (see, e.g., Decosterd I, & Woolf C J (2000) Pain 87: 149-158) of neuropathic pain. […] Such experiments also determined the AUC to assess effects over the full experimental duration.
Under isoflurane anesthesia (5% induction, 2.5% maintenance in 2 L/min air), skin on the lateral surface of the left hind thigh was incised. The biceps femoris muscle was bluntly dissected to expose the three terminal branches of the sciatic nerve (see, e.g., Decosterd I, & Woolf C J (2000) Pain 87: 149-158). Briefly, the common peroneal and tibial branches were tightly ligated with 4-0 silk and axotomized 2.0 mm distal to the ligation. Sham animals underwent the same operation; however the nerves were exposed and not ligated. Closure of the incision was made in two layers. The muscle was sutured once with 5-0 absorbable suture and skin was auto-clipped. Animals were allowed to recover for 5-7 days before any testing.

NaV channels = experiment: Frequency (use)-dependent block of sodium current in DRG neurons; format: cell-based; conditions: 5 μM, thirty test pulses at 10 Hz, listed as ReN 206
Protocol: Control DRG neurons were treated with 0.03% DMSO (squares). Thirty, identical test pulses were applied at 10 Hz. The difference in available current was calculated by dividing the peak current at any given pulse (pulseN) by the peak current in response to the initial pulse (pulsei). Data are from 5-6 cells per condition.
The ability to block Na^+ currents in an activity- or use-dependent manner is a useful property for drugs since it allows for preferential decreases in sodium channel availability during high—(i.e., hyperexcitable ‘pain’ neurons) but not low-frequency firing.

T1 sequence (Q02294 whole entry): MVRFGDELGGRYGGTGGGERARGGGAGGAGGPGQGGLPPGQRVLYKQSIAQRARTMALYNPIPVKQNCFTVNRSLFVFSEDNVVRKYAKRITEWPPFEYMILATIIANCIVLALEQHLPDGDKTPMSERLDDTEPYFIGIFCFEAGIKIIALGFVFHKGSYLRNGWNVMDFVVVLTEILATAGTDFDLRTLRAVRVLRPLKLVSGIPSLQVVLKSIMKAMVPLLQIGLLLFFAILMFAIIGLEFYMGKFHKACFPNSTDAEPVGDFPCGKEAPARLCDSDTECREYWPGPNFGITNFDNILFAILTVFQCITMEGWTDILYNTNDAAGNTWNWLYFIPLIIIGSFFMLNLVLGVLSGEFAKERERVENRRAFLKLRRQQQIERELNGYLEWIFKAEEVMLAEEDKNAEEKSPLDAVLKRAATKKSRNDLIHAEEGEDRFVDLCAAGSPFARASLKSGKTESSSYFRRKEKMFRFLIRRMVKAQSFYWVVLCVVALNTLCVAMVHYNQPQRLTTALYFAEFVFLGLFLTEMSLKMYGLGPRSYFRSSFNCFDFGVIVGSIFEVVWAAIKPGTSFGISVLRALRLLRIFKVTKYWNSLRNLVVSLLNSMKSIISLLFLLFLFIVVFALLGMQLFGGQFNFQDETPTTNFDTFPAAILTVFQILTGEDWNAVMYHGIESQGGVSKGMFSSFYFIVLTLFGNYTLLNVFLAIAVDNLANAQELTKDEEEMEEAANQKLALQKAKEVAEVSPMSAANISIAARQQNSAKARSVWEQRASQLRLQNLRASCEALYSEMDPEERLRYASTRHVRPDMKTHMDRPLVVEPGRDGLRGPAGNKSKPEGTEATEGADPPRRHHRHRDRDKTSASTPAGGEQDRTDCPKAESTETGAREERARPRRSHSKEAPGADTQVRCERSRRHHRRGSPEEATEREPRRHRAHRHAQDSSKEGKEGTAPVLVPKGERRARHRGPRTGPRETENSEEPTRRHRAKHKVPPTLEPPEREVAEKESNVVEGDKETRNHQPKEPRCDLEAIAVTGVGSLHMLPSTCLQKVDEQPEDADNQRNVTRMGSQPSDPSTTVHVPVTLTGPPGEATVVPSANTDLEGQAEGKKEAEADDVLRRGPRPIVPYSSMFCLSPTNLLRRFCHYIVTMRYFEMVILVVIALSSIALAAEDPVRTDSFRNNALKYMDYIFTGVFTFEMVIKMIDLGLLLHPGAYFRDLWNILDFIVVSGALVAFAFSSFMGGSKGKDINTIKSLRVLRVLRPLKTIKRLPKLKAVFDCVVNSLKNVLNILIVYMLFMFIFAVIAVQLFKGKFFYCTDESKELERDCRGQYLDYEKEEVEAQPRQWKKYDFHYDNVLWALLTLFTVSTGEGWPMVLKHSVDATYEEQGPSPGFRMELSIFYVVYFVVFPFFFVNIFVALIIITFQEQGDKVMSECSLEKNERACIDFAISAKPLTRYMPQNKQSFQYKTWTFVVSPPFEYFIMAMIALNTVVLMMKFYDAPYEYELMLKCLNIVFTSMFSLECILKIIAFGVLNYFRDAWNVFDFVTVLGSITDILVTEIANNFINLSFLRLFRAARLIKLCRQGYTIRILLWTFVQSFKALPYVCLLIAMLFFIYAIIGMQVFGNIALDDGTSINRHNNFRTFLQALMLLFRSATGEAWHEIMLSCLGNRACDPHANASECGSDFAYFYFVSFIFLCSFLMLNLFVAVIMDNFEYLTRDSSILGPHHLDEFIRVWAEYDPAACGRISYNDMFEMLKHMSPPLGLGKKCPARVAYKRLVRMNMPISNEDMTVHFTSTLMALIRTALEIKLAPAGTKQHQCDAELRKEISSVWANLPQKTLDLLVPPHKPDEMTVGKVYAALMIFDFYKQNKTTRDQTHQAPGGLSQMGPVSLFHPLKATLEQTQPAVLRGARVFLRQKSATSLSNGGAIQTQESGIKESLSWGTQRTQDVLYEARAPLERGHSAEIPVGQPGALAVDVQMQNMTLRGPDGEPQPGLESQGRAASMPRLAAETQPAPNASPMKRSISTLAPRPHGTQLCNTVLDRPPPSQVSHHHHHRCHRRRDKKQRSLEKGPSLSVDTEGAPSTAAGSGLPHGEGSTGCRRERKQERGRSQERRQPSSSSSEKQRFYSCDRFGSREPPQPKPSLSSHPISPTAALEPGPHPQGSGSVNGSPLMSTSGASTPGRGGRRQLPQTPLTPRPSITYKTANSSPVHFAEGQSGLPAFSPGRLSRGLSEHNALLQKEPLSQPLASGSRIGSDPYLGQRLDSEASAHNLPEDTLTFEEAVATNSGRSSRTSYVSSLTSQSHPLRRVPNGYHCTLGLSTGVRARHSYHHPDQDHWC
T1 sequence (P54287 whole entry partner): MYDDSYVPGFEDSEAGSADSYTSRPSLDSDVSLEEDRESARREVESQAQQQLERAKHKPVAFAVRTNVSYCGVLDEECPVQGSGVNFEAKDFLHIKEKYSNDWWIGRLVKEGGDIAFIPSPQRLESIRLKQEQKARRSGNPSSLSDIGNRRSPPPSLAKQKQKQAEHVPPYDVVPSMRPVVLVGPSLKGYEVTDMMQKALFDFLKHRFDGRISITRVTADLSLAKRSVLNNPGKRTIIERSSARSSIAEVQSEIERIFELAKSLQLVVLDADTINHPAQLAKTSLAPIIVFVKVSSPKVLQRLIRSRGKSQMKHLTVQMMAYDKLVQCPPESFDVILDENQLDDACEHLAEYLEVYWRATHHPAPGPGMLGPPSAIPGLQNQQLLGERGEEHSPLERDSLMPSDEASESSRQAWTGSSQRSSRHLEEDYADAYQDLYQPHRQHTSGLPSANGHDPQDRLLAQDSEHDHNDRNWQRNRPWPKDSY
T1 sequence (P54290 25-1091 partner): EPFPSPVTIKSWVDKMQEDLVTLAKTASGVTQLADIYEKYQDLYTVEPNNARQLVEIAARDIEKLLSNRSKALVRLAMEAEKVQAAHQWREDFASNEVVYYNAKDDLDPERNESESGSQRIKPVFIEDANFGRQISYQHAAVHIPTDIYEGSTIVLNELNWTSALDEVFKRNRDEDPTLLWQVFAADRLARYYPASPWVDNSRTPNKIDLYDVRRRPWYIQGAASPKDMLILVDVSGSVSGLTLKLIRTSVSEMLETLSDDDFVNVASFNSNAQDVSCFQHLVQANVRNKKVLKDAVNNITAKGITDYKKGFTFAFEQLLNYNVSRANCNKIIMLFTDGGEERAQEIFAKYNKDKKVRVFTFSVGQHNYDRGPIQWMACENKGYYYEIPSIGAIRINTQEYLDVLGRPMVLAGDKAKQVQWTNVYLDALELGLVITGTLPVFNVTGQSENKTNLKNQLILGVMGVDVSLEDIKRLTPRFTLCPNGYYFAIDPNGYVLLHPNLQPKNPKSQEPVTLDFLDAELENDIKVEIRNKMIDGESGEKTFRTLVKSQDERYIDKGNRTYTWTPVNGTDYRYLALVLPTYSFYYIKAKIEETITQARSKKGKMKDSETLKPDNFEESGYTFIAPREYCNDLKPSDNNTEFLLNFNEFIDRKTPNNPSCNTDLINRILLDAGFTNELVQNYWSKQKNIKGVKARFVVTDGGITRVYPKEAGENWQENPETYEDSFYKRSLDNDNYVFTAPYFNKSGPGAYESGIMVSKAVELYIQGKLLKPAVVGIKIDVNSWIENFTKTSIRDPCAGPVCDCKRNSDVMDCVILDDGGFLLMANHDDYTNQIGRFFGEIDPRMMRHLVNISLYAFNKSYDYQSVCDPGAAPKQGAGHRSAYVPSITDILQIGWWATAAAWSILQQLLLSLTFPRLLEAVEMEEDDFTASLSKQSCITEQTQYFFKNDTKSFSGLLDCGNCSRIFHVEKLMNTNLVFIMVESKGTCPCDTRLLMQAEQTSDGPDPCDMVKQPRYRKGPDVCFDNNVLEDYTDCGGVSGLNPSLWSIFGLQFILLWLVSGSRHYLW
Sequence of hERG (Q12809 whole entry): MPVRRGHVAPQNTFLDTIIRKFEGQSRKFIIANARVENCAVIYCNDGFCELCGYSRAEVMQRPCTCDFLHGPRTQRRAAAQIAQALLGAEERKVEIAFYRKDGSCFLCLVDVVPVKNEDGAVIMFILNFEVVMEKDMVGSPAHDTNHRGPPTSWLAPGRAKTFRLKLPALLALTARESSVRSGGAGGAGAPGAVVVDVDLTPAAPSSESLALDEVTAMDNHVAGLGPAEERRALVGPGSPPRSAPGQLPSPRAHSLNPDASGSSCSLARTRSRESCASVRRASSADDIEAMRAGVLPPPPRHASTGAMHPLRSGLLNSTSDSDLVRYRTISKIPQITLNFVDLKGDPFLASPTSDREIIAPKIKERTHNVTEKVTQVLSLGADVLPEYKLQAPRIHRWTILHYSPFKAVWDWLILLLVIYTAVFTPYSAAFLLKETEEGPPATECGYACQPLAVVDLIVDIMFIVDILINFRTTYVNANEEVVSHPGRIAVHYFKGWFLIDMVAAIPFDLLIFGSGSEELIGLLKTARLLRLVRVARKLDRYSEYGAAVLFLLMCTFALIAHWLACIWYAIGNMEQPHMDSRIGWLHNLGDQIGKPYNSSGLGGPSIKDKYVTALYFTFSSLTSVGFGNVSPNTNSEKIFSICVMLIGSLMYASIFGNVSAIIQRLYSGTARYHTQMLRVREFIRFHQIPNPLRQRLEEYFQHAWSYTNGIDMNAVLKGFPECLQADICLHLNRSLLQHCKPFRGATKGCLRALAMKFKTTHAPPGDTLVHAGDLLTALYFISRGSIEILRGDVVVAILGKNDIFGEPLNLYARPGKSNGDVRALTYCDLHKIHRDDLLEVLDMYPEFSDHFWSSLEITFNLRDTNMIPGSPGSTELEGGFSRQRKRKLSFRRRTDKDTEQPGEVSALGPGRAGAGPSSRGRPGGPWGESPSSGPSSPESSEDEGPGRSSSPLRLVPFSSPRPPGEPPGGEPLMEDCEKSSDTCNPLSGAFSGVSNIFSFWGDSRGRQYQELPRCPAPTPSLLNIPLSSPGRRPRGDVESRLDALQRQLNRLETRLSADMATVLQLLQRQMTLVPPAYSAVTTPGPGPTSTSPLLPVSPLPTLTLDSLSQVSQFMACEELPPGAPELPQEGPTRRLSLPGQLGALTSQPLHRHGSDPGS

Structure (SMILES)	inhibition of NaV1.7 (concentration-response curve) (NaV1.7)	effect on other NaV1.x channels (other NaV1.x channels)	effect on other NaV1.x channels (other NaV1.x channels; highest concentration of 20 μM)	biophysical properties of inactivation (NaV1.7 channels; any time point versus control)	direct block of NaV1.7 channels (normalized peak sodium current density) (NaV1.7 channels; indicated incubation times)	effect on peak CaV2.2 currents (CaV2.2)	effect on peak CaV2.2 currents (CaV2.2; listed as ReN 194)	binding to Ubc9 (STD NMR) (Ubc9)	reduction of TTX-S NaV1.7 currents (TTX-S NaV1.7 currents) [%]	effect on hERG K+ currents (hERG)	Penk mRNA (proenkephalin), normalized to L27 ribosomal RNA (Penk mRNA)	binding to CRMP2 (STD NMR) (CRMP2)	paw withdrawal thresholds (PWTs) ([1]; intrathecal injection 0.5 μg/5 μl)	area under the curve (AUC) for PWT ([1]; spinal administration, full experimental duration)	frequency (use)-dependent decrease in current amplitude (NaV channels)
COc1cc(C(=O)N2CCC(c3nc4ccccc4n3Cc3cccc(F)c3)CC2)ccc1OCc1cccc(F)c1 [AZ194, (4-(1-(3-fluorobenzyl)-1H-benzo[d]imidazol-2-yl)piperidin-1-yl)(4-((3-fluorobenzyl)oxy)-3-methoxyphenyl)methanone]	nanomolar potency	not affected	no inhibition	not altered	does not directly block	no inhibition	did not affect	No binding was observed	~66	did not affect	upregulates; also recorded: increased	binds	significantly increased; also recorded: significantly reversed	reversal of mechanical allodynia	–
Fc1ccc(Oc2ccc(CN3CCC(c4nc5ccccc5[nH]4)CC3)cc2)cc1 [AZ206, 2-(1-(4-(4-fluorophenoxy)benzyl)piperidin-4-yl)-1H-benzo[d]imidazole]	–	–	–	–	–	–	–	–	–	–	–	–	–	–	use-dependent inhibitor; also recorded: decrease in current amplitude
COc1cc(C(=O)N2CCC(c3nc4ccccc4n3Cc3cccc(F)c3)CC2)ccc1OCc1cccc(F)c1 [drawing 20]	–	–	–	–	–	–	–	–	–	–	upregulation	–	–	–	–
